Assay results as given in patent publication US20090131416A1, “SUBSTITUTED PYRAZINYL AMIDE COMPOUNDS AS MODULATORS OF THE HISTAMINE H3 RECEPTOR” (priority 2007, published 2009).

Assays:
[1] = target: T1, cloned human H3 receptors (Homo sapiens, UniProt Q9Y5N1); assay: H3 Receptor Binding (Human); settings: cloned human H3 receptors stably expressed in SK-N-MC cells; average of results
T1 construct: expressed in transfected cells; host or cells: SK-N-MC cells
Protocol: Binding of compounds to the cloned human H3 receptors, stably expressed in SK-N-MC cells, was performed as described by Barbier, A. J. et al. (Br. J. Pharmacol. 2004, 143(5), 649-661). Data for compounds tested in this assay are presented in Table 1, as an average of results obtained.

[2] = target: T2, rat H3 receptor (rat brain membranes) (Rattus norvegicus, UniProt Q9QYN8); assay: H3 Receptor Binding (Rat); settings: rat brain membranes without cerebellum; 0.8 nM N-[3H]-α-methylhistamine; 60 min at 25° C.
T2 construct: A rat brain without cerebellum (Zivic Laboratories Inc., Pittsburgh, Pa.) was homogenized; tissue Zivic Laboratories Inc; host or cells: rat brain without cerebellum, membranes
T2 sequence (Q9QYN8 whole entry): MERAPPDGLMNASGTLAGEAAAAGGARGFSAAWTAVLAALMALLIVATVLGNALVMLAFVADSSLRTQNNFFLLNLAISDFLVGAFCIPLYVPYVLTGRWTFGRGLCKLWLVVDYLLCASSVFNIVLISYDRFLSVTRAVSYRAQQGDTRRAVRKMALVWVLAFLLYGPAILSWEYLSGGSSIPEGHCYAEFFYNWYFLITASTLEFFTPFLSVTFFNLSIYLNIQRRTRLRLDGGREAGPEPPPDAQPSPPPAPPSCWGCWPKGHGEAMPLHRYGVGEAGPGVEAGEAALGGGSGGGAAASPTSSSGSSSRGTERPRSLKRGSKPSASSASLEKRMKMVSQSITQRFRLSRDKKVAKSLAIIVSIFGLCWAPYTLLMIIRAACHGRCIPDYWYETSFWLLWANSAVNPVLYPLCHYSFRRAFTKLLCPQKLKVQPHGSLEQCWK
Protocol: A rat brain without cerebellum (Zivic Laboratories Inc., Pittsburgh, Pa.) was homogenized in 50 mM Tris-HCl/5 mM EDTA and centrifuged at 1,000 rpm for 5 min. The supernatant was removed and recentrifuged at 15,000 rpm for 30 min. Pellets were rehomogenized in 50 mM Tris/5 mM EDTA (pH 7.4). Membranes were incubated with 0.8 nM N-[^3H]-α-methylhistamine plus/minus test compounds for 60 min at 25° C. and harvested by rapid filtration over GF/C glass fiber filters (pretreated with 0.3% polyethylenimine) followed by four washes with buffer. Nonspecific binding was defined in the presence of 100 μM histamine. Inhibitory concentration (responsible for 50% inhibition of maximal effect, IC50) values were determined by a single site curve-fitting program (GraphPad, San Diego, Calif.) and converted to Ki values based on a N-[^3H]-α-methylhistamine dissociation constant (Kd) of 0.8 nM. The following results were obtained: Example 2, 34 nM; Example 3, 33 nM; Example 4,18 nM; Example 5, 9.2 nM.

[3] = target: T3, rat H3 receptor (Rattus norvegicus, UniProt Q9QYN8); assay: Cyclic AMP Accumulation (rat H3); format: cell-based; settings: SK-N-MC cells expressing reporter construct and rat H3 receptor; read-out: Rat pA2 (converted)
T3 construct: expressed in transfected cells; host or cells: SK-N-MC cell sublines
T3 sequence (Q9QYN8 whole entry): as above
Source text: (§1) Sublines of SK-N-MC cells were created that expressed a reporter construct and either the human or rat H3 receptor. The pA2 values were obtained as described by Barbier et al. (2004).

[4] = target: T4, human H3 receptor (Homo sapiens, UniProt Q9Y5N1); assay: Cyclic AMP Accumulation (human H3); format: cell-based; settings: SK-N-MC cells expressing reporter construct and human H3 receptor; read-out: Human pA2 (converted)
T4 construct: expressed in transfected cells; host or cells: SK-N-MC cell sublines
T4 sequence (Q9Y5N1 whole entry): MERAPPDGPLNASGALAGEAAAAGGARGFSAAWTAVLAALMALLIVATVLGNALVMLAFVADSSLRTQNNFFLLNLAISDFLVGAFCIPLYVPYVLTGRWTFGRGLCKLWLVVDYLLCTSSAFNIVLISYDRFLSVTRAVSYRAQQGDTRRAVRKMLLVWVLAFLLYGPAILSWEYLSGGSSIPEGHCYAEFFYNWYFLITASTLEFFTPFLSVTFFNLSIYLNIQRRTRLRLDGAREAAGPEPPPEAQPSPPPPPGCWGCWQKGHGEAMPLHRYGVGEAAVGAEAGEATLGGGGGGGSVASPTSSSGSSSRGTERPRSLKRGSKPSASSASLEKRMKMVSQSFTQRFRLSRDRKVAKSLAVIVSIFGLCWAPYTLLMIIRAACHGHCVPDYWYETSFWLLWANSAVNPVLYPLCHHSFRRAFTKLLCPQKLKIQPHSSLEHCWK
Source text: as §1

T1 sequence (Q9Y5N1 whole entry): as above

SMILES: O=C(c1cnc(Oc2ccccc2)cn1)N1CCCN(C2CCC2)CC1 [Example 2, (4-Cyclobutyl-[1,4]diazepan-1-yl)-(5-phenoxy-pyrazin-2-yl)-methanone]
- Ki [1]: 2.9 nM
- Ki [2]: 34 nM

SMILES: O=C(c1cnc(Oc2ccc(Cl)cc2)cn1)N1CCCN(C2CCC2)CC1 [Example 3, [5-(4-Chloro-phenoxy)-pyrazin-2-yl]-(4-cyclobutyl-[1,4]diazepan-1-yl)-methanone]
- Ki [1]: 3.7 nM
- Ki [2]: 33 nM
- Kb [3]: 12.6 nM
- Kb [4]: 1.2 nM

SMILES: O=C(c1cnc(Oc2ccc(F)cc2)cn1)N1CCCN(C2CCC2)CC1 [Example 1, (4-Cyclobutyl-[1,4]diazepan-1-yl)-[5-(4-fluoro-phenoxy)-pyrazin-2-yl]-methanone]
- Ki [1]: 2.4 nM
- Kb [3]: 13.5 nM
- Kb [4]: 0.871 nM

SMILES: O=C(c1cnc(Oc2cccc(F)c2)cn1)N1CCN(C2CCC2)CC1 [Example 9, (4-Cyclobutyl-piperazin-1-yl)-[5-(3-fluoro-phenoxy)-pyrazin-2-yl]-methanone]
- Ki [1]: 37 nM

SMILES: O=C(c1cnc(Oc2cccc(F)c2)cn1)N1CCCN(C2CCC2)CC1 [Example 4, (4-Cyclobutyl-[1,4]diazepan-1-yl)-[5-(3-fluoro-phenoxy)-pyrazin-2-yl]-methanone]
- Ki [1]: 2.6 nM
- Ki [2]: 18 nM
- Kb [3]: 6.92 nM
- Kb [4]: 0.537 nM

SMILES: O=C(c1cnc(Oc2ccc(Cl)cc2)cn1)N1CCN(C2CCC2)CC1 [Example 8, [5-(4-Chloro-phenoxy)-pyrazin-2-yl]-(4-cyclobutyl-piperazin-1-yl)-methanone]
- Ki [1]: 38 nM

SMILES: O=C(c1cnc(Oc2ccc(F)cc2)cn1)N1CCN(C2CCC2)CC1 [Example 6, (4-Cyclobutyl-piperazin-1-yl)-[5-(4-fluoro-phenoxy)-pyrazin-2-yl]-methanone]
- Ki [1]: 19 nM

SMILES: O=C(c1cnc(Oc2ccccc2)cn1)N1CCN(C2CCC2)CC1 [Example 7, (4-Cyclobutyl-piperazin-1-yl)-(5-phenoxy-pyrazin-2-yl)-methanone]
- Ki [1]: 36 nM

SMILES: O=C(c1cnc(OC2CCCCC2)cn1)N1CCN(C2CCC2)CC1 [Example 12, (4-Cyclobutyl-piperazin-1-yl)-(5-cyclohexyloxy-pyrazin-2-yl)-methanone]
- Ki [1]: 51 nM

SMILES: O=C(c1cnc(OC2CCCCC2)cn1)N1CCCN(C2CCC2)CC1 [Example 11, (4-Cyclobutyl-[1,4]diazepan-1-yl)-(5-cyclohexyloxy-pyrazin-2-yl)-methanone]
- Ki [1]: 3.2 nM
- Kb [3]: 9.55 nM
- Kb [4]: 0.525 nM

SMILES: N#Cc1cccc(Oc2cnc(C(=O)N3CCN(C4CCC4)CC3)cn2)c1 [Example 10, 3-[5-(4-Cyclobutyl-piperazine-1-carbonyl)-pyrazin-2-yloxy]-benzonitrile]
- Ki [1]: 28 nM

SMILES: N#Cc1cccc(Oc2cnc(C(=O)N3CCCN(C4CCC4)CC3)cn2)c1 [Example 5, 3-[5-(4-Cyclobutyl-[1,4]diazepane-1-carbonyl)-pyrazin-2-yloxy]-benzonitrile]
- Ki [1]: 1.5 nM
- Ki [2]: 9.2 nM
